Earlier results on three molecules are cited in patent US8916150B2 (priority 2009, dated 2014).

Each structure is given as a SMILES string.

For data set [1] the following is noted: in vivo.
For another data set, the target named is LC of BoNT-A (Clostridium botulinum, UniProt P0DPI1).
The subject of data set [2] is botulinum toxin light chain (LC).

LC of BoNT-A, sequence (P0DPI1 2-448 limits assumed): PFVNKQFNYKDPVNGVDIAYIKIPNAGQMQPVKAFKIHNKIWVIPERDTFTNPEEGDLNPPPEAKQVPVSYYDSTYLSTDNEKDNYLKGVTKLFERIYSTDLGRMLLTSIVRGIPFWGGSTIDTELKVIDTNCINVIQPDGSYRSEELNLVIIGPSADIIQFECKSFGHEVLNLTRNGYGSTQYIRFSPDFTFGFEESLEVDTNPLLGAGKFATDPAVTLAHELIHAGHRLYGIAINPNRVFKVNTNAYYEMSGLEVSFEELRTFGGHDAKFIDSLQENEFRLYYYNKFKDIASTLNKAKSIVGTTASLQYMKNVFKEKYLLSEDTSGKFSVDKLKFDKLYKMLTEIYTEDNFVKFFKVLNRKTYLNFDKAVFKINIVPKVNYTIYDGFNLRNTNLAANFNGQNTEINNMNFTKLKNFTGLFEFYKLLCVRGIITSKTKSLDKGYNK

As for `CC(=O)[O-].CC(=O)[O-].[Zn+2]` [zinc acetate], the “nausea and vomiting after single dose” value in data set [1] was “induces nausea and vomiting”.

As for `[Cl-].[Cl-].[Zn+2]` [zinc chloride], the “effect on autocatalytic fragmentation of LC” value on LC of BoNT-A is “enhanced”.

As for `O=C(O)CN(CCN(CC(=O)O)CC(=O)O)CC(=O)O` [EDTA, ethylenediaminetetraacetate], in data set [2], the “effect on LC enzymatic activity on removal of Zn2+” value was “completely abolishes enzymatic activity”.
